In patent US20080072338A1, “Animal for Drug Efficacy Evaluation, Method for Developing Chronic Obstructive Pulmonary Disease in Animal for Drug Efficacy Evaluation, and Method for Evaluating Drug Efficacy Using the Animal” (priority 2004, published 2008):

System: chronic obstructive pulmonary disease-model animal
Assay: Drug efficacy evaluation in the chronic obstructive pulmonary disease-model animal (change of respiratory function)
[1] = 10 mg/kg orally 1 hour before cigarette solution and LPS solution, guinea-pig, average values of 6 animals

## Cn1c(=O)c2[nH]cnc2n(C)c1=O [Theophylline, theophylline]
[1]
  Peak expiratory flow: 19.0 mL/s
  Respiratory minute rate: 124 breaths/min
  Respiratory minute volume: 457 mL/min
  Tidal volume: 3.7 mL
10 mg/kg orally, COPD-model guinea-pig
  Effect on respiration function (in words): improvement effect of respiration function
